{"source": "patent US5681833A", "about": "“Benzodiazepine derivatives” (Merck, Sharp & Dohme Ltd., priority 1992, dated 1997)", "key": {"CCK receptor (pancreas)": {"target": "T1, CCK receptor (pancreas) (Rattus norvegicus, UniProt P30551)", "T1 construct": "The whole pancreas was dissected free of fat tissue and was homogenized; from tissue; host or cells: whole pancreas of male Sprague-Dawley rats, homogenate membranes", "T1 sequence (P30551 1-444)": "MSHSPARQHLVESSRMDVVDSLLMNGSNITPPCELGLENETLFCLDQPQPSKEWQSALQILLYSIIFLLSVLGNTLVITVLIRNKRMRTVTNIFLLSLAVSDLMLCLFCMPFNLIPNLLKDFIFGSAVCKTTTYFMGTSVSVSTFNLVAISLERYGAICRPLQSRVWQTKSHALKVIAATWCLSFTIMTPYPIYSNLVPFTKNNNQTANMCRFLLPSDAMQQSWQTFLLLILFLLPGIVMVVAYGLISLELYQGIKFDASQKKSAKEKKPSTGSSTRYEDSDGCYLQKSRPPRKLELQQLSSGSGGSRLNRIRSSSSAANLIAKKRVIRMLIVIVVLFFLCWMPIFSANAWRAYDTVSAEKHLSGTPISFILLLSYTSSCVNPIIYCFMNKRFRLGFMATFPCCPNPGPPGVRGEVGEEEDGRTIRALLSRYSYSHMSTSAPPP", "experiment": "CCK Receptor Binding (Pancreas), inhibition of specific 125I-CCK-8 binding", "set-up": "species or system rat (male Sprague-Dawley)", "method": "1. CCK Receptor Binding (Pancreas)\nCCK-8 sulphated was radiolabelled with ^125 I-Bolton Hunter reagent (2000 Ci/mmole). Receptor binding was performed according to Chang and Lotti (Proc. Natl. Acad. Sci. 83, 4923-4926, 1986) with minor modifications.\nMale Sprague-Dawley rats (150-200 g) were sacrificed by decapitation. The whole pancreas was dissected free of fat tissue and was homogenized in 25 volumes of ice-cold 10 mM N-2-hydroxyethyl-piperazine-N'-2-ethane sulphonic acid (HEPES) buffer with 0.1% soya bean trypsin inhibitor (pH 7.4 at 25° C.) with a Kinematica Polytron. The homogenates were centrifuged at 47,800 g for 10 min. Pellets were resuspended in 10 volumes of binding assay buffer (20 mM (HEPES)), 1 mM ethylene glycol-bis-(β-aminoethylether-N,N'-tetraacetic acid) (EGTA), 5 mM MgCl2, 150 mM NaCl, bacitracin 0.25 mg/ml, soya bean trypsin inhibitor 0.1 mg/ml, and bovine serum albumin 2 mg/ml pH 6.5 at 25° C.) using a Teflon (trademark) homogenizer, 15 strokes at 500 rpm. The homogenate was further diluted in binding assay buffer to give a final concentration of 0.5 mg original wet weight/1 ml buffer. […] All assays were run in duplicate. The reaction mixtures were incubated at 25° C. for 2 hours and the reaction terminated by rapid filtration (Brandell 24 well cell harvester) over Whatman GF/C filters, washing 3×4 mls with ice-cold 100 Mm NaCl. The radioactivity on the filters was counted with a LKB gamma counter."}, "CCK receptor (brain)": {"target": "T2, CCK receptor (brain) (Cavia porcellus, UniProt H0VZC5)", "T2 construct": "the cortex was removed and homogenized in 25 mL ice-cold 0.32M sucrose; from tissue; host or cells: cortex of male Hartley guinea pigs, P2 membranes", "T2 sequence (H0VZC5 1-426)": "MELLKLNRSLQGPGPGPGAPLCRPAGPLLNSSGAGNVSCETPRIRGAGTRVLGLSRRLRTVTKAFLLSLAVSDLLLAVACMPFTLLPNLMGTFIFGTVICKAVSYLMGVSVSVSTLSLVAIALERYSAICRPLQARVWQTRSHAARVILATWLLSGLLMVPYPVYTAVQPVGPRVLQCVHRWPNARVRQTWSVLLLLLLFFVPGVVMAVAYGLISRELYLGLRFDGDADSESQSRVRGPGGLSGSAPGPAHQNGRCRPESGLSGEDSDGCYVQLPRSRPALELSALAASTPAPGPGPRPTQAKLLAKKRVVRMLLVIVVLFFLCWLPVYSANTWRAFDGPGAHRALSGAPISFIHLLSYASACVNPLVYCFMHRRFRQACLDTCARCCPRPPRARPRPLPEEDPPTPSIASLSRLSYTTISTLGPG", "experiment": "CCK Receptor Binding (Brain), inhibition of specific 125I-CCK-8 binding", "set-up": "species or system guinea pig (male Hartley)", "method": "2. CCK Receptor Binding (Brain)\nCCK-8 sulphated was radiolabelled and the binding was performed according to the description for the pancreas method with minor modifications.\nMale Hartley guinea pigs (300-500 g) were sacrificed by decapitation and the cortex was removed and homogenized in 25 mL ice-cold 0.32M sucrose. The homogenates were centrifuged at 1000 g for 10 minutes and the resulting supernatant was recentrifuged at 20,000 g for 20 minutes. The P2 pellet was resuspended in binding assay buffer (20mM HEPES, 5 mM MgCl2, 0.25 mg/ml bacitracin, 1 mM EGTA pH 6.5 at 25° C.), using a Teflon (trademark) homogenizer (5 strokes at 500 rpm) to give a final concentration of 10 mg original wet weight/1.2 ml buffer. […] All assays were run in duplicate. The reaction mixtures were incubated at 25° C. for 2 hours and then the reaction was terminated by rapid filtration (Brandell 24 well cell harvester) on Whatman GF/C filters with 3×5 ml washes of cold 100 mM NaCl. The radioactivity on the filters was counted with a LKB gamma counter."}}, "data": [{"smiles": "Cc1ccc(NC(=O)N[C@@H]2N=C(c3ccccc3)c3ccccc3N(C)C2=O)cc1Nc1nn[nH]n1", "note": "[Example 12, (+)-N-[3(R)-2,3-Dihydro-1-methyl-2-oxo-5-phenyl-1H-1,4-benzodiazepin-3-yl]-N'-[4-methyl-3-{(tetrazol-5-yl)amino}phenyl]urea]", "values": [{"measurement": "IC50", "setting": "CCK receptor (pancreas)", "value": "> 3000", "unit": "nM"}, {"measurement": "IC50", "setting": "CCK receptor (brain)", "value": 1.09, "unit": "nM"}]}]}
